{
  "source": "patent US20250339531A1",
  "about": "“DUX4 POLYPEPTIDES AND NUCLEIC ACIDS FOR TREATING INFLAMMATORY AND AUTOIMMUNE CONDITIONS” (Fred Hutchinson Cancer Center, priority 2021, published 2025)",
  "key": {"[1]": {"tested_on": "de novo protein synthesis", "experiment": "HPG Click-iT labeling of nascent proteins", "type": "cell-based, human", "conditions": "FSHD myotubes and SuSa cells co-stained for H3.X/Y", "description": "Cells were incubated for 30 minutes in DMEM or RPMI media depleted for methionine and cysteine (Gibco), followed by a 1-hour incubation in methionine-depleted media supplemented with 200 μM HPG (Sigma). Cells were fixed with 4% paraformaldehyde (Electron Microscopy Sciences) diluted in PBS for 10 minutes at room temperature and stained with Click-iT HPG Alexa Fluor 488 Protein Synthesis Assay Kit (Invitrogen) according to manufacturer's protocol."}, "IDO1": {"tested_on": "IDO1", "experiment": "Immunofluorescence of IFNG-induced IDO1 in FSHD MB200 myotubes", "type": "cell-based, human", "conditions": "DUX4-positive versus DUX4-negative FSHD myotubes", "description": "All myoblast experiments were conducted in immortalized MB135 or MB200 myoblast cell lines (isolated from a control or FSHD2 subject, respectively cultured in Ham's F-10 Nutrient Mix (Gibco) supplemented with 15% fetal bovine serum (Hyclone), 100 U/100 μg/ml penicillin/streptomycin (Gibco), 1 μM dexamethasone (Sigma), and 10 ng/ml recombinant human basic fibroblast growth factor (PeproTech). To differentiate the myoblasts to myotubes, media was changed to DMEM supplemented with 10 μg/ml insulin (Sigma) and 10 μg/ml transferrin (Sigma). Cell lines containing doxycycline-inducible transgenes were additionally cultured with 2 μg/mL puromycin (Sigma). Transgenes were induced with 1 μg/mL of doxycycline (Sigma) for 4 hours prior to other treatments for a total of 20 hrs. The Kitra-SRS cells (RRID:CVCL_YI69) were provided by Dr. H. Otani and Osaka University (Nakai et al., 2019) and were cultured in DMEM supplemented with 10% fetal bovine serum (Hyclone) and 100 U/100 μg/ml penicillin/streptomycin (Gibco). Biological replicates consisted of independent but parallel experiments, such as simultaneously stimulating three cell culture plates with IFNγ. Technical replicates consisted of repeat measurements of the same biological sample, such as loading the same biological sample in triplicate for analysis by RT-qPCR. […]"}},
  "data": [
    {"substance": "endogenous DUX4: DUX4 expressed endogenously in FSHD myotubes and SuSa cells", "values": [
      {"measurement": "HPG Click-iT signal in cells with endogenous expression", "setting": "[1]", "result": "dramatic reduction in HPG Click-iT signal"},
      {"measurement": "IFNG induction of IDO1", "setting": "IDO1", "result": "sufficient to prevent ISG induction by IFNG"}
    ]}
  ]
}
